3 compounds from paper PMC4324493, “Synthesis, ^68Ga-Radiolabeling, and Preliminary In Vivo Assessment of a Depsipeptide-Derived Compound as a Potential PET/CT Infection Imaging Agent” (BioMed Research International, 2015) can be followed below.

One series in a line: in vitro. The class given is cell-based. The note with it: human; for CC50 at 120 h: MT-4 cells. The procedure:
The reduction of 2,3-bis-(2-methoxy-4-nitro-5-sulfophenyl)-2-H-tetrazolium-5-carboxanilide (XTT) was used to determine the cellular cytotoxicity of TBIA101, DOTA-TBIA101, and ^natGa-DOTA-TBIA101, as described by Scudiero et al.. MT-4 cells were obtained through the NIH AIDS Reagent Program, Division of AIDS, NIAID, NIH: MT-4 from Dr. Douglas Richman and were cultured and all incubations were done in RPMI medium containing 10% fetal calf serum at 37°C and 5% CO2-atmosphere. A 6 × 10^5 cells/mL concentration was used to seed cells into 96-well culture plates (total cell number of 2 × 10^4 per well) followed by exposure to eight 5-fold dilutions of the stock compound solutions (1 mg/mL). The plates were incubated for 5 days before XTT was added to react for 4 h. Formazan production was quantified, measuring absorbance at 450 nm (reference wavelength 620 nm), and related to the absorbance of untreated control cells (RPMI background). Cytotoxicity was determined by extrapolating the inhibitory concentration at 50% (IC50).

The test system of series [1] is Staphylococcus aureus (ATCC 25923) (S. aur). The series can be described thus: Bacterial association assay (MALDI-TOF-MS), S. aur. The class given is binding. As to conditions: for affinity binding constant (K): S. aur 1.5 × 10^8 CFU, 20-100 μM compound, 37°C, 3 h, MALDI-TOF-MS; for bacterial binding and internalization (qualitative): S. aur, membrane-associated (sample 1) and cell-internalized (sample 2) fractions by MALDI-TOF-MS. The procedure: (§1) MALDI-TOF-MS analysis was performed on an Autoflex III MALDI-TOF mass spectrometer (Bruker, Coventry, United Kingdom) with a 337 nm nitrogen laser operating in a linear mode at an accelerated voltage of 20 kV. The α-cyano-4-hydroxycinnamic acid matrix was applied: the matrix solution was prepared by making a saturated solution of the matrix powder into TA30 solution (30% ACN and 70% water containing 0.1% TFA). A MALDI plate-sandwich method was used by spotting the compounds between spots of matrix solution. Analyses were done in triplicates; spectra were collected manually and the mass peak intensities were recorded. S. aur and E. coli strains were cultured at 37°C overnight and tested with the peptide (TBIA101), the peptide-conjugate (DOTA-TBIA101), and the gallium(III)-complexed derivative (^natGa-DOTA-TBIA101). The bacterial concentration was kept at 1.5 × 10^8 colony forming units (CFU). Five different concentrations (20, 40, 60, 80, and 100 μM) of the above-mentioned compounds were used for all experiments, following the described method. The final reaction volume was 600 μL. Bacteria and compound mixtures were incubated at 37°C in an orbital shaker at 100 rpm for 3 h. After incubation, the cells were centrifuged at 3000 ×g for 20 min and the supernatant was removed. The bacterial pellet was washed twice with 200 μL of phosphate buffered saline (pH 7.4) and 200 μL of 80% ACN containing 0.1% TFA was added to dissolve the pellet followed by vigorous mixing followed by centrifugation at 3000 ×g for 20 min. The supernatant (sample 1) was collected, representing the membrane-associated compound fraction. The residual pellet was treated with 200 μL of 80% ACN (sample 2), representing the cell-internalized compound fraction. Bacterial persistence in samples 1 and 2 was qualified with MALDI-TOF-MS.

For the next series, the system named is E. coli (ATCC 25922). The series can be described thus: Bacterial association assay (MALDI-TOF-MS), E. coli. The class given is binding, Escherichia coli. As to conditions: for Kd: E. coli 1.5 × 10^8 CFU, 20-100 μM compound, 37°C, 3 h, MALDI-TOF-MS, read-out: affinity binding constant (K); for bacterial binding and internalization (qualitative): E. coli, membrane-associated (sample 1) and cell-internalized (sample 2) fractions by MALDI-TOF-MS. The protocol: as §1

Residues, ends and D or L forms follow the SMILES beside them. No end group written: not given here. *: point of attachment. DOTA = O=C(O)CN1CCN(CC(=O)O)CCN(CC(=O)*)CCN(CC(=O)O)CC1

Take `CC[C@H](C)[C@H](NC(=O)CNC(=O)CNC(=O)CN1CCN(CC(=O)O)CCN(CC(=O)O)CCN(CC(=O)O)CC1)C(=O)N[C@H](C(=O)N[C@@H](CC(C)C)C(=O)N[C@H](C(=O)N1CCC[C@H]1C(=O)N[C@@H](CC(C)C)C(=O)N1CCC[C@H]1C(N)=O)C(C)C)[C@@H](C)O` [DOTA-TBIA101] ({DOTA}-GGITLVPLP-NH2): the CC50 (usually the concentration giving 50% cytotoxicity) at 120 h in “in vitro” was found to be 42.1 µM. Further, in series [1], the affinity binding constant (K) is 0.029 ± 0.006 nM; the “bacterial binding and internalization (qualitative)” value was “binding and no detectable internalization”. In the series on E. coli (ATCC 25922), the Kd is 28 ± 6 pM; the “bacterial binding and internalization (qualitative)” value was “binding and no detectable internalization”.
For the compound `CC[C@H](C)[C@H](NC(=O)[C@@H](NC(=O)[C@H](CC(C)C)NC(=O)[C@@H](NC(=O)[C@@H]1CCCN1C(=O)[C@H](CC(C)C)NC(=O)[C@@H]1CCCN1C(=O)CN1CCN(CC(=O)O)CCN(CC(=O)O)CCN(CC(=O)O)CC1)C(C)C)[C@@H](C)O)C(=O)NCC(=O)NCC(N)=O` [natGa-DOTA-TBIA101, metal not drawn] ({DOTA}-PLPVLTIGG-NH2), the IC50 (in general, the point on the concentration scale where inhibition reaches its midpoint) at 5 days in “in vitro” came out at 33.7 µM. Also, in series [1], the affinity binding constant (K) came out at 2.97 ± 0.86 nM; the “bacterial binding and internalization (qualitative)” value is on record as “internalization”. Besides, in the series on E. coli (ATCC 25922), the Kd is 2580 ± 1040 pM; the “bacterial binding and internalization (qualitative)” value is given as “internalization”.
As to “GGITLVPLP-NH2 (C-terminus assumed) [TBIA101]”, in the series “in vitro”, the CC50 at 120 h was determined as 63.2 µM. For the same compound, in series [1], the affinity binding constant (K) came to 0.023 ± 0.007 nM; the “bacterial binding and internalization (qualitative)” value was “binding and internalization”. In the series on E. coli (ATCC 25922), the Kd is 22 ± 6 pM; the “bacterial binding and internalization (qualitative)” value was “binding and internalization”.
